Source: patent publication US20250354125A1, “HIGH-[…]-TERM CULTURED E[…] WITH ANGIOGENESIS” (priority 2024, published 2025)
Ends that are not written are not given here.

Key:
[1] = test system: HUVEC Endothelial organoids; experiment: Organoid stimulation with IL-1β and TGF-β and treatment with PIEZO1 or ROCK inhibitor; EndMT and endothelial marker expression; assay type: cell-based, human; details: FIG. 14a/14b; for TAGLN expression / fibronectin expression: EndMT marker
Description: (§1) HUVEC Endothelial organoids were seeded in 384-well U-bottom ULA plates (S-bio #MS-9384UZ, lot 20839306) and centrifuged at 1,000 rpm for 5 min (142 rcf, Thermo Scientific Sorvall ST16 centrifuge). Endothelial organoid seeding volume was 25 μL per well. The HUVEC organoid seeding solution consisted of 120,000 HUVEC cells/mL, 160 μg/mL Matrigel (Corning #356-231, 10.7 mg/mL), 10% FBS (GeminiBio #900-108) and 0.24% methylcellulose (Methocel, Sigma Aldrich #94378). A key procedure being to add cold Matrigel into warm media to induce gelling.

[2] = test system: HUVEC Endothelial organoids; experiment: LPS and TNF-α stimulated endothelial organoid; E-selectin immunofluorescence and bright field imaging; assay type: cell-based, human
Description: as §1
Fixed HUVEC Organoids were washed with PBS and permeabilized with 0.1% Tween in PBS for 10 min at 4° C. Samples were incubated with Organoid washing buffer (OWB, 0.2% BSA/0.1% Triton-X-100 in PBS) to prevent non-specific binding for 15 min at 4° C. Samples were incubated with primary antibodies in OWB at 4° C. overnight. Primary antibodies include: SELE Rabbit pAb (ABclonal, #A2191, Lot 5500024697, 1:1,000 dilution), Human VE-Cadherin Antibody (R&D systems, #AF938, 1:40 dilution) and Mouse anti-CD34 antibody (Clone QBEND/10, Invitrogen #MA1-10202, 1:500 dilution). Samples were washed with OWB and incubated with secondary antibodies or Alexa Fluor 647 Phalloidin (Invitrogen, #A22287, Lot 2170291, 1:400 dilution) in OWB for 2 hours at room temperature (RT). Secondary antibodies include: Goat anti-Rabbit Alexa Fluor 647 (Invitrogen, #A-21244, Lot 2134003, 1:500 dilution), Donkey anti-rat Alexa Fluor 488 (1:2,000 dilution), Goat anti-mouse Alexa Fluor 488 (Thermo Fisher, #A-11001, 1:2,000 dilution) and Donkey anti-mouse Alexa Fluor 568 (Invitrogen #A10037, 1:1,000 dilution). Organoids were washed with PBS and incubated with DAPI in PBS for 30 min at RT and imaged using Spinning disk Confocal microscope (Nikon, CSU-W1) with 10×, 20× and 60× magnification. E-selectin, Integrin α6 and CD34 stained organoids were performed without permeabilization step, VE-Cadherin and Phalloidin stained organoids were performed with permeabilization step
There is currently a lot of research being conducted on endothelial cells in relation to inflammation. […]

| Molecule | TAGLN expression [1] | fibronectin expression [1] | changes in the bright field (BF) ([2]; after 24 hours of treatment) | E-selectin signal on the surface of the organoids ([2]; fluorescent staining after 24 hours of treatment, compared to the control group, FIG. 11) | E-selectin fluorescence in relation to concentration ([2]; fluorescent staining, FIG. 11) | PECAM1 expression [1] |
| --- | --- | --- | --- | --- | --- | --- |
| GsMTx4: PIEZO1 inhibitor (GCLEFWWKCNPNDDKCCRPKLKCSKLFKLCNFSF; ends and bridges not checked; cysteine pairing not given here; UniProt Q7YT39 47-80, looked up) | did not alter TAGLN | decreased fibronectin expression |  |  |  |  |
| TNF-α |  |  | no significant changes were observed | showed expression of the E-selectin signal | increase in fluorescence proportional to their concentrations |  |
| IL-1β: cytokine used for organoid stimulation; its effect indicated an inflammatory response | without affecting fibronectin or TAGLN levels | without affecting fibronectin |  |  |  | reduced PECAM1 expression |
| C[C@@H](N)[C@H]1CC[C@H](C(=O)Nc2ccncc2)CC1 [Y-27632] | TAGLN expression remained unchanged | elevated fibronectin levels |  |  |  | increased PECAM1 expression |
